# Measurements from ChEMBL document CHEMBL2074223 (Mol Pharmacol, 2000).
# B1: Bile salt export pump (Mus musculus) (protein)
# chain: MSDSVILRSVKKFGEENHAFESDGFHNNDKKSRLQDKKKGEGARVGFFELFRFSSSKDNWLMFMGSVCALLHGMAQPGMIIVFGILTDIFVEYDIERQELSIPEKVCMNNTIVWINSSFNQNMTNGTSCGLVDINSEVIKFSGIYAGVGVAVLILGYFQIRLWVITGARQIRKMRKFYFRRIMRMEIGWFDCTSVGELNSRFSDDINKIDEAIADQMALFLQRLSTALSGLLLGFYRGWKLTLVILAVSPLIGIGAAVIGLSVAKFTELELKAYAKAGSIADEVLSSIRTVAAFGGENKEVERYEKNLMFAQRWGIWKGMVMGFFTGYMWCLIFFCYALAFWYGSRLVLDEGEYTPGTLIQIFLCVIIAAMNIGNASSCLEIFSTGCSAASSIFQTIDRQPVMDCMSGDGYKLDRIKGEIEFHNVTFHYPSRPEVKILNNLSMVIKPGETTAFVGSSGAGKSTALQLIQRFYDPCEGMVTLDGHDIRSLNIRWLRDQIGIVEQEPVLFSTTIAENIRLGREEATMEDIVQAAKDANAYNFIMALPQQFDTLVGEGGGQMSGGQKQRVAIARALIRKPKILLLDMATSALDNESEAKVQGALNKIQHGHTIISVAHRLSTVRSADVIIGFEHGTAVERGTHEELLERKGVYFMLVTLQSQEDNTHKETGIKGKDTTEGDTPERTFSRGSYQDSLRASIRQRSKSQLSHLSHEPPLAIGDHKSSYEDRKDNDVLVEEVEPAPVRRILKYNISEWPYILVGALCAAINGAVTPIYSLLFSQILKTFSLVDKEQQRSEIYSMCLFFVILGCVSLFTQFLQGYNFAKSGELLTKRLRKFGFKAMLRQDIGWFDDLKNNPGVLTTRLATDASQVQGATGSQVGMMVNSFTNIFVAVLIAFLFNWKLSLVISVFFPFLALSGAVQTKMLTGFASQDKEILEKAGQITNEALSNIRTVAGIGVEGRFIKAFEVELEKSYKTAIRKANVYGLCYAFSQGISFLANSAAYRYGGYLIVYEDLNFSYVFRVVSSIAMSATAVGRTFSYTPSYAKAKISAARFFQLLDRKPPIDVYSGAGEKWDNFQGKIDFIDCKFTYPSRPDIQVLNGLSVSVDPGQTLAFVGSSGCGKSTSIQLLERFYDPDQGTVMIDGHDSKKVNVQFLRSNIGIVSQEPVLFDCSIMDNIKYGDNTKEISVERAIAAAKQAQLHDFVMSLPEKYETNVGIQGSQLSRGEKQRIAIARAIVRDPKILLLDEATSALDTESEKTVQLALDKAREGRTCIVIAHRLSTIQNSDIIAVMSQGVVIEKGTHKKLMDQKGAYYKLVITGAPIS
# How the values were obtained:
# Format in all cases: functional, cell-based
# Bile salt export pump [1] = biological target: T1, Bile salt export pump (Mus musculus, UniProt Q9QY30); experiment: (§1) TP_TRANSPORTER: intracellular accumulation in Bsep-expressing LLC-PK1 cells; conditions: pig
# T1 sequence (Q9QY30 whole entry): B1 chain
# [2] = biological target: T2, ATP-dependent translocase ABCB1 (Homo sapiens, UniProt P08183); experiment: (§2) TP_TRANSPORTER: intracellular accumulation in MDR1-expressing LLC-PK1 cells; conditions: pig
# T2 sequence (P08183 whole entry): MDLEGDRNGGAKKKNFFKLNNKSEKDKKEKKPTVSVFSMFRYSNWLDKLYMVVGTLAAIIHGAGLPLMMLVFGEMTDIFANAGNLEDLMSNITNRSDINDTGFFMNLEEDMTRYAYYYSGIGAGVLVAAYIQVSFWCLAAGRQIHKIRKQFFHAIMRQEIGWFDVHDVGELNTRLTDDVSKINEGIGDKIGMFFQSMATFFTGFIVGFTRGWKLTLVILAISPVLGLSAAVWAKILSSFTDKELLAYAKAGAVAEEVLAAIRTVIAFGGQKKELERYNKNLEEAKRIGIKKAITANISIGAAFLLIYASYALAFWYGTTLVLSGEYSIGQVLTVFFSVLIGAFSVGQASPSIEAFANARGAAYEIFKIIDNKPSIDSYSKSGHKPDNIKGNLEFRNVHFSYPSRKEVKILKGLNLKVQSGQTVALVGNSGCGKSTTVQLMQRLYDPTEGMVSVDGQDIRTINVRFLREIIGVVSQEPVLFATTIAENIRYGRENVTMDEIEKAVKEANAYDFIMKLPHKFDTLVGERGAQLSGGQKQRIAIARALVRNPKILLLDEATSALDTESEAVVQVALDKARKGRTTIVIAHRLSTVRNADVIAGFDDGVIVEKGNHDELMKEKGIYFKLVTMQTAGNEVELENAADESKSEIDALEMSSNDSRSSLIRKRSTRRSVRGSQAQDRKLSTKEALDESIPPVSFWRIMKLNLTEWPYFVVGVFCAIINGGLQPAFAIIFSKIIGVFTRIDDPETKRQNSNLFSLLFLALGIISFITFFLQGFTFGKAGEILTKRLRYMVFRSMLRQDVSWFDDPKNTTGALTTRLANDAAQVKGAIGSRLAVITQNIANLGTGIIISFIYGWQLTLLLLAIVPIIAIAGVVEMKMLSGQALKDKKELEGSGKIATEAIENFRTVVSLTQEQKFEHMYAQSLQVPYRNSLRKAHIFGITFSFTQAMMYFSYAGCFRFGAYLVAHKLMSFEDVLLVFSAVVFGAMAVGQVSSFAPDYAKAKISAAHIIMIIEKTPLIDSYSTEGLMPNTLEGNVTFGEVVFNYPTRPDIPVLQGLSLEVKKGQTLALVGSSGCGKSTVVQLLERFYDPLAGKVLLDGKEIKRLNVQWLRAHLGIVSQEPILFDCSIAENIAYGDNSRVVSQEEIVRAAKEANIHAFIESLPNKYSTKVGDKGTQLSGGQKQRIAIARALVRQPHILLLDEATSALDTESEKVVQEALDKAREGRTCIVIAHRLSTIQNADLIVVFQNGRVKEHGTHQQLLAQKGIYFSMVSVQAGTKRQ
# [3] = test system: CC[C@]1(O)C[C@@H]2CN(CCc3c([nH]c4ccccc34)[C@@](C(=O)OC)(c3cc4c(cc3OC)N(C)[C@H]3[C@@](O)(C(=O)OC)[C@H](OC(C)=O)[C@]5(CC)C=CCN6CC[C@]43[C@@H]65)C2)C1; experiment: as §2
# Bile salt export pump [4] = biological target: T1, Bile salt export pump; experiment: TP_TRANSPORTER: increase in Calcein-AM intracellular accumulation (Calcein-AM: 1 uM, Reserpine: 20 uM) in Bsep-expressing LLC-PK1 cells; conditions: pig, llc-pk1, 20 µM
# Bile salt export pump [5] = biological target: T1, Bile salt export pump; experiment: TP_TRANSPORTER: increase in Calcein-AM intracellular accumulation (Calcein-AM: 1 uM, Ditekiren: 20 uM) in Bsep-expressing LLC-PK1 cells; conditions: pig, llc-pk1, 20 µM
# [6] = biological target: T2, ATP-dependent translocase ABCB1; experiment: TP_TRANSPORTER: increase in Calcein-AM intracellular accumulation (Calcein-AM: 1 uM, Ditekiren: 20 uM) in MDR1-expressing LLC-PK1 cells; conditions: pig, llc-pk1, 20 µM
# [7] = substrate: CC[C@]1(O)C[C@@H]2CN(CCc3c([nH]c4ccccc34)[C@@](C(=O)OC)(c3cc4c(cc3OC)N(C)[C@H]3[C@@](O)(C(=O)OC)[C@H](OC(C)=O)[C@]5(CC)C=CCN6CC[C@]43[C@@H]65)C2)C1; experiment: as §1
Molecule,Activity (Bile salt export pump [1]),Activity [2],other results
CC[C@]1(O)C[C@H]2CN(CCc3c([nH]c4ccccc34)[C@@](C(=O)OC)(c3cc4c(cc3OC)N(C=O)[C@H]3[C@@](O)(C(=O)OC)[C@H](OC(C)=O)[C@]5(CC)C=CCN6CC[C@]43[C@@H]65)C2)C1 [VINCRISTINE],is not a substrate [-],substrate [+],–
ATP-dependent translocase ABCB1 (Homo sapiens),–,–,Km [3]: 99.4 µM
COC(=O)[C@H]1[C@H]2C[C@@H]3c4[nH]c5cc(OC)ccc5c4CCN3C[C@H]2C[C@@H](OC(=O)c2cc(OC)c(OC)c(OC)c2)[C@@H]1OC [RESERPINE],–,–,Activity (Bile salt export pump [4]): inhibitor [+]
COC(=O)c1ccccc1-c1c2ccc(=N)cc-2oc2cc(N)ccc12.Cl [RHODAMINE123],is not a substrate [-],substrate [+],–
CC(=O)O[C@H]1C(=O)[C@@]2(C)[C@H]([C@H](OC(=O)c3ccccc3)[C@]3(O)C[C@H](OC(=O)[C@H](O)[C@@H](NC(=O)c4ccccc4)c4ccccc4)C(C)=C1C3(C)C)[C@]1(OC(C)=O)CO[C@@H]1C[C@@H]2O [PACLITAXEL],is not a substrate [-],substrate [+],–
CC[C@H](C)[C@H](NC(=O)[C@@H](C[C@H](O)[C@H](CC(C)C)NC(=O)[C@H](Cc1c[nH]cn1)N(C)C(=O)[C@H](Cc1ccccc1)NC(=O)[C@@H]1CCCN1C(=O)OC(C)(C)C)C(C)C)C(=O)NCc1ccccn1,–,–,Activity (Bile salt export pump [5]): inhibitor [+]; Activity [6]: is not an inhibitor [-]
COc1cccc2c1C(=O)c1c(O)c3c(c(O)c1C2=O)C[C@@](O)(C(C)=O)C[C@@H]3O[C@H]1C[C@H](N)[C@H](O)[C@H](C)O1 [DAUNORUBICIN],is not a substrate [-],substrate [+],–
CC(=O)OCOC(=O)CN(CC(=O)OCOC(C)=O)Cc1c(OC(C)=O)ccc2c1Oc1c(ccc(OC(C)=O)c1CN(CC(=O)OCOC(C)=O)CC(=O)OCOC(C)=O)C21OC(=O)c2ccccc21,substrate [+],substrate [+],–
C[C@H]1O[C@@H](O[C@H]2[C@@H](O)C[C@H](O[C@H]3[C@@H](O)C[C@H](O[C@H]4CC[C@@]5(C)[C@H](CC[C@@H]6[C@@H]5C[C@@H](O)[C@]5(C)[C@@H](C7=CC(=O)OC7)CC[C@]65O)C4)O[C@@H]3C)O[C@@H]2C)C[C@H](O)[C@@H]1O [DIGOXIN],is not a substrate [-],–,–
B1,–,–,Km [7]: 38.3 µM
